Experiments:
[1] = system: K. pneumoniae; test: Petrocci & Clarke antimicrobial laundry additive test, cotton fabric, Tide powder plus sanitizer; format: cell-based; conditions: 30 ppm sanitizer (expressed as Cl2), mixture with Tide powder; for Percent Reduction of K. pneumonia on Fabric: cotton fabric
Method: Bioefficacy studies were performed using cotton fabric samples to compare monochloro dimethyl hydantoin (MCDMH) to trichloroisocyanuric acid (TCCA) and sodium dichloroisocyanurate (DCCA), two chlorine bleaches. Mixtures of Tide® powder, available from Procter and Gamble of Cincinnati, Ohio, and the sanitizers specified in Table 1 were prepared and thereafter dissolved in water. The sanitizers were completely dissolved in the water before testing. The mixtures were tested according to the known Petrocci & Clarke method (A. Petrocci and P. Clarke, Proposed Test Method for Antimicrobial Laundry Additives, Journal of the Association of Official Analytical Chemists, 52(4), 836-842 (1969)) against K. pneumoniae. The percent reduction of K. pneumonia on the fabric and on the wash water was determined.

[2] = system: Klebsiella pneumoniae ATCC 4352; test: Simulated in-use laundry sanitation test (Petrocci and Clarke); format: cell-based; conditions: pH 7.0, Example 6
Method: A simulated “in-use” laundry sanitation test, as described in Petrocci and Clarke, supra, was conducted to evaluate the activity of the samples listed in Table 3 below.
The test was performed as follows. Fabric swatches were inoculated and dried with ˜20,000,000 cfu test organism. (Staphylococcus aureus ATCC 6538, Klebsiella pneumoniae ATCC 4352). The swatches were exposed to a sample dilution for 10 minutes followed by neutralization and enumeration of survivors. The percent reduction of bacteria was calculated for the fabric swatches and wash water.
The sample dilutions were prepared as follows. Tide® powder and MCDMH were dissolved separately in water and mixed together. Then the mixture was adjusted to 150 ppm hard water. The Tide® powder mixture contained about 1.8 g of Tide® powder per liter of mixture.
The procedure in Example 5 was repeated with Klebsiella pneumonia ATCC 4352 only. The Tide® liquid sample was prepared by the same procedure as the Tide® powder sample described in Example 5. The Tide® liquid mixture contained about 1.8 g of Tide® liquid per liter of mixture.

Row | Compound | Percent Reduction of K. pneumonia in Wash Water [1] | Percent Reduction of K. pneumonia on Fabric [1] | % Reduction in 10 Minutes - Kiebsiella Fabric ([2]; 5 ppm (expressed as Cl2)) | % Reduction in 10 Minutes - Kiebsiella Water ([2]; 5 ppm (expressed as Cl2)) | % Reduction in 10 Minutes - Kiebsiella Fabric ([2]; 10 ppm (expressed as Cl2)) | % Reduction in 10 Minutes - Kiebsiella Water ([2]; 10 ppm (expressed as Cl2)) | % Reduction in 10 Minutes - Kiebsiella Fabric ([2]; 20 ppm (expressed as Cl2)) | % Reduction in 10 Minutes - Kiebsiella Water ([2]; 20 ppm (expressed as Cl2))
1 | O=c1nc([O-])n(Cl)c(=O)n1Cl.[Na+] [DCCA, sodium dichloroisocyanurate] | 87.50% | 96.36% | – | – | – | – | – | –
2 | O=c1n(Cl)c(=O)n(Cl)c(=O)n1Cl [TCCA, trichloroisocyanuric acid] | 96.38% | 97.09% | – | – | – | – | – | –
3 | monochloro-5,5-dimethyl hydantoin [MCDMH] | 99.76% | 99.60% | 99.99% | 100% | 100% | 100% | 100% | 100%

Reference: patent publication US20030104965A1, “Laundry sanitizer containing partially halogenated hydantoins” (Lonza Inc., priority 2001, published 2003)
